From US20100184815A1 (priority 2008, published 2010)
Read-outs that look alike come from different tables or passages of the source.

How the values were obtained:
Gal-4 hPPARα = biological target: T1, Gal-4 hPPARα (Homo sapiens, UniProt Q07869); test: Gal4-hPPARα transient transfection reporter assay in Cos cells; assay type: cell-based; details: luciferase reporter, 24 hours with compound, scale 1-5, read-out: Gal-4 hPPAR α EC50 (scaled number)
T1 construct: Plasmids pGal4-hPPARα, pGal4-hPPARγ, pGal4-hPPARδ and pG5-TK-pGL3 were constructed as previously described by Staels, Bart, et al., Nature 1998 Jun; 25
T1 sequence (Q07869 200-468 limits assumed): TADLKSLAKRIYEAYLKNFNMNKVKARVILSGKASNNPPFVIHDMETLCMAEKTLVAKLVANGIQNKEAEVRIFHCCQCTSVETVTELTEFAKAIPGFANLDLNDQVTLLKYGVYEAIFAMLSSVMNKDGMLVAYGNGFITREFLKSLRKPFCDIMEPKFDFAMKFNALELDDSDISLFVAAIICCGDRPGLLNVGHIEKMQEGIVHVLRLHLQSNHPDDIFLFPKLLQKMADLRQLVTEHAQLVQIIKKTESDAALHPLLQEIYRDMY
Method in brief: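 Cos cells transiently co-transfected with Gal4-hPPAR expression plasmid, pG5-TK-pGL3 luciferase reporter and β-galactosidase control, then treated 24 h with increasing compound concentrations in DMEM containing 0.2% FCS. Luciferase normalised to β-galactosidase; EC50 from curve fit, at least three experiments.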

[1] = Metabolism studies using human liver microsomal preparations; assay type: in vitro ADME; details: for HLMs Predominant Enzyme: comparison of half life with and without NADPH: Esterase, CYP or Mixed; for half-life: pH 7.4, pooled human liver microsomes, with NADPH (CYP system active), 37° C., read-out: HLMs t1/2
Method in brief: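 Pooled human liver microsomes in 50 mM Tris pH 7.4 with 5 mM MgCl2 at 37° C, with or without NADPH-generating system; buffer-only control for stability. Parent loss and acid metabolite formation followed by LC-MS/MS over 0–90 min. Half-life reported with NADPH; comparison with (−)NADPH assigns predominant enzyme.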

pig liver esterase = test: Metabolism studies using pig liver esterase; assay type: in vitro ADME; details: 37° C.
[2] = pig liver esterase in human plasma protein solution
[3] = pig liver esterase in phosphate buffer pH 7.4, no plasma, read-out: Pig Liver Esterase (t1/2 min.) (−) Plasma
[4] = pig liver esterase in human plasma protein solution, read-out: Pig Liver Esterase (t1/2 min.) (+) Plasma

Row | SMILES | EC50 (Gal-4 hPPARα) [µM] | HLMs Predominant Enzyme [1] | half-life [1] [min] | Pig Liver Esterase (t1/2 min.) (+) Plasma (pig liver esterase; [2]) | half-life at 4.9 µM (pig liver esterase; [3]) [min] | half-life at 4.9 µM (pig liver esterase; [4]) [min]
1 | CCCCCCCCn1c(COC(=O)c2ccc(OC(C)(C)C(=O)O)c(OC)c2)nn(Cc2ccc(C)cc2)c1=O [Compound 186, 2-(2-methoxy-4-(((1-(4-methylbenzyl)-4-octyl-5-oxo-4,5-dihydro-1H-1,2,4-triazol-3-yl)methoxy)carbonyl)phenoxy)-2-methylpropanoic acid] | 0.001 to 0.05 | CYP | 42 | Stable | 45 | –
2 | CCCCCCn1c(COC(=O)c2ccc(SC(C)(C)C(=O)O)cc2)nn(Cc2ccc(C(C)(C)C)cc2)c1=O [Compound 187, 2-(4-(((1-(4-tert-butylbenzyl)-4-hexyl-5-oxo-4,5-dihydro-1H-1,2,4-triazol-3-yl)methoxy)carbonyl)phenylthio)-2-methylpropanoic acid] | 0.001 to 0.05 | Mixed | 38 | – | 26 | 64
3 | CCCCCCn1c(COC(=O)c2ccc(OC(C)(C)C(=O)O)cc2)nn(Cc2ccc(C(C)(C)C)cc2)c1=O [Compound 188, 2-(4-(((1-(4-tert-butylbenzyl)-4-hexyl-5-oxo-4,5-dihydro-1H-1,2,4-triazol-3-yl)methoxy)carbonyl)phenoxy)-2-methylpropanoic acid] | 0.001 to 0.05 | CYP | > 90 | Stable | 9 | –
4 | CCCCCCCn1c(COC(=O)c2ccc(SC(C)(C)C(=O)O)cc2)nn(Cc2ccc(C(C)(C)C)cc2)c1=O [Compound 189, 2-(4-(((1-(4-tert-butylbenzyl)-4-heptyl-5-oxo-4,5-dihydro-1H-1,2,4-triazol-3-yl)methoxy)carbonyl)phenylthio)-2-methylpropanoic acid] | 0.001 to 0.05 | CYP | 90 | – | < 5 | 105
5 | CCCCCCCn1c(COC(=O)c2ccc(OC(C)(C)C(=O)O)cc2)nn(Cc2ccc(C(C)(C)C)cc2)c1=O [Compound 190, 2-(4-(((1-(4-tert-butylbenzyl)-4-heptyl-5-oxo-4,5-dihydro-1H-1,2,4-triazol-3-yl)methoxy)carbonyl)phenoxy)-2-methylpropanoic acid] | 0.001 to 0.05 | CYP | 36 | Stable | 8 | –
6 | CCCCCCCn1c(COC(=O)c2ccc(SC(C)(C)C(=O)O)cc2)nn(Cc2ccc(C)cc2)c1=O [Compound 191, 2-(4-(((4-heptyl-1-(4-methylbenzyl)-5-oxo-4,5-dihydro-1H-1,2,4-triazol-3-yl)methoxy)carbonyl)phenylthio)-2-methylpropanoic acid] | 0.001 to 0.05 | Esterase | 15 | Stable | < 5 | –
7 | CCCCCCCn1c(COC(=O)c2ccc(OC(C)(C)C(=O)O)cc2)nn(Cc2ccc(C)cc2)c1=O [Compound 192, 2-(4-(((4-heptyl-1-(4-methylbenzyl)-5-oxo-4,5-dihydro-1H-1,2,4-triazol-3-yl)methoxy)carbonyl)phenoxy)-2-methylpropanoic acid] | 0.001 to 0.05 | Mixed | 33 | Stable | 27 | –
